# Results reported in patent publication US10479780B2, “Aminopyrazole derivatives” (Chugai Seiyaku Kabushiki Kaisha, priority 2015, dated 2019).
# Like-named read-outs stand apart in the source and are kept apart here.
# Key:
# Assay type in all cases: biochemical
# [1] = molecular target: T1, human Lck enzyme (Homo sapiens, UniProt P06239); test: Lck enzyme inhibitory activity (time-resolved fluorometry, biotinylated peptide phosphorylation); settings: read-out: LCK_IC50
# T1 construct: purchased Carna Biosciences, Inc. 08-170
# Summary of the method: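 Readout pairs a europium cryptate-labelled anti-phosphotyrosine antibody with XL665-streptavidin, measured by time-resolved fluorescence. IC50 derived from percent inhibition against untreated controls.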
# [2] = molecular target: T2, human Yes1 enzyme (Homo sapiens, UniProt P07947); test: Yes1 enzyme inhibitory activity (time-resolved fluorometry, biotinylated peptide phosphorylation); settings: read-out: YES_IC50
# T2 construct: made in house
# Summary of the method: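 Inhibition was expressed against a compound-free control to give IC50, using TR-FRET read-out (Eu-cryptate anti-pTyr antibody, streptavidin-XL665).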
# [3] = molecular target: T3, human Src enzyme (Homo sapiens, UniProt P12931); test: Src enzyme inhibitory activity (time-resolved fluorometry, biotinylated peptide phosphorylation); settings: read-out: SRC_IC50
# T3 construct: purchased Carna Biosciences, Inc. 08-173
# Summary of the method: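 Compounds were tested for blocking tyrosine phosphorylation of a biotinylated peptide substrate by recombinant human Src. Phosphorylated product was quantified by time-resolved fluorometry using europium cryptate and XL665 conjugates, and IC50 was calculated against the compound-free control.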
# [4] = biotinylated peptide phosphorylation
# T1 sequence (P06239 whole entry): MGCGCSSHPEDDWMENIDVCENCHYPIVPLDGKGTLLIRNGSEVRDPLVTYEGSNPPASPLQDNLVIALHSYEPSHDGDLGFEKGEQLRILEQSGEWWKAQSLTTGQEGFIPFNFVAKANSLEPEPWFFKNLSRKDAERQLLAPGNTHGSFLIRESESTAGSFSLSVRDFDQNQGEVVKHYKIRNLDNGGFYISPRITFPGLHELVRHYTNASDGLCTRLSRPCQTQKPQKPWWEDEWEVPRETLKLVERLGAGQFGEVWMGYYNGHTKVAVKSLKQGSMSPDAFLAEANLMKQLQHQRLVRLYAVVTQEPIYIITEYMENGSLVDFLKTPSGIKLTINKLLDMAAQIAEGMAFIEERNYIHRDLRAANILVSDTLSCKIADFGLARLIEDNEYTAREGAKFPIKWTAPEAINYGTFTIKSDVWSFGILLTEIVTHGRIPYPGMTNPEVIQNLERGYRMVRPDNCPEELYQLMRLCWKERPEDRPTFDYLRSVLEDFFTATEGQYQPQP
# T2 sequence (P07947 whole entry): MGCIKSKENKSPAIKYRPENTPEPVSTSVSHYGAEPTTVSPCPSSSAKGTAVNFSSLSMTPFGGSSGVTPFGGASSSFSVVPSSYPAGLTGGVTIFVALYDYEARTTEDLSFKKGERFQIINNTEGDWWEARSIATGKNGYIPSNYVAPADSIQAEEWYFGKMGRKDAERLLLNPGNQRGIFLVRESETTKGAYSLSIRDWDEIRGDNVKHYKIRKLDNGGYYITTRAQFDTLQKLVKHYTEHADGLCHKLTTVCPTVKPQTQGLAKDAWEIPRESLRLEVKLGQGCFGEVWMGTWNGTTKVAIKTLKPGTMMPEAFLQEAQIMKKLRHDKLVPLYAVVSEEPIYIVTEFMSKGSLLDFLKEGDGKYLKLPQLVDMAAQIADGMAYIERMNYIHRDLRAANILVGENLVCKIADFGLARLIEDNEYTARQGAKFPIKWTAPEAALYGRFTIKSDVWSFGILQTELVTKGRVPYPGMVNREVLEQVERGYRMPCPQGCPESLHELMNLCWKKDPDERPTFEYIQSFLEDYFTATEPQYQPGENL
# T3 sequence (P12931 whole entry): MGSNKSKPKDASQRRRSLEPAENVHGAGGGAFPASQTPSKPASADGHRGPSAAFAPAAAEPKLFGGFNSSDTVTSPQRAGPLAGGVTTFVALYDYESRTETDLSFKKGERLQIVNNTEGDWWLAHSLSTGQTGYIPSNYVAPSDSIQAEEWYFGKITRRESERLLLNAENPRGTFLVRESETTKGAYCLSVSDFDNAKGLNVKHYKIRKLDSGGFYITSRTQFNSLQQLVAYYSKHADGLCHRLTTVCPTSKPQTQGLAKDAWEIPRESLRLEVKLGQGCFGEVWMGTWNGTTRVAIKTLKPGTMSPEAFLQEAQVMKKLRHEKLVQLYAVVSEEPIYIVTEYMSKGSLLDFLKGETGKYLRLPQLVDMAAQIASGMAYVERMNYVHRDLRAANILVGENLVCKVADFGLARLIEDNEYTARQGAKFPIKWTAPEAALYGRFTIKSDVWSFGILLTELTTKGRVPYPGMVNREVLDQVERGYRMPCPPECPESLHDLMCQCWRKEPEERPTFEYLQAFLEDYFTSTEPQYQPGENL
compound,measurement,setting,value
"Cc1cc(Oc2c(F)cccc2F)ncc1-n1ncc(C(=O)c2cc3cc(F)c(N4C(=O)NC5(CCCC5)C4=O)cc3[nH]2)c1N [Example 5-1-344, 3-[2-[5-amino-1-[6-(2,6-difluorophenoxy)-4-methylpyridin-3-yl]pyrazole-4-carbonyl]-5-fluoro-1H-indol-6-yl]-1,3-diazaspiro[4.4]nonane-2,4-dione]",IC50,[1],13 nM
same,IC50,[2],4.7 nM
same,IC50,[3],150 nM
"Cc1cc(-n2ncc(C(=O)c3cc4cc(OC5CCN(C(C)C)CC5)c(N5CCOC5=O)cc4[nH]3)c2N)ccc1Oc1ccccc1F [Example 5-1-178, 3-(2-(5-amino-1-(4-(2-fluorophenoxy)-3-methylphenyl)-1H-pyrazole-4-carbonyl)-5-((1-isopropylpiperidin-4-yl)oxy)-1H-indol-6-yl)oxazolidin-2-one]",IC50,[1],3.4 nM
same,IC50,[2],0.37 nM
same,IC50,[3],48 nM
"Cc1cc2cc(C(=O)c3cnn(-c4cnc(Oc5ccccc5F)cc4C)c3N)[nH]c2cc1C1CCN(S(C)(=O)=O)CC1 [Example 5-1-090, [5-amino-1-[6-(2-fluorophenoxy)-4-methylpyridin-3-yl]pyrazol-4-yl]-[5-methyl-6-(1-methylsulfonylpiperidin-4-yl)-1H-indol-2-yl] methanone]",IC50,[1],3.8 nM
same,IC50,[2],2.6 nM
same,IC50,[3],25 nM
"Cc1cc(Oc2ccccc2F)ncc1-n1ncc(C(=O)c2cc3cc(F)c(NS(C)(=O)=O)cc3[nH]2)c1N [Example 4-7-001, N-{2-{5-amino-1-[6-(2-fluorophenoxy)-4-methylpyridin-3-yl]pyrazole-4-carbonyl}-5-fluoro-1H-indol-6-yl}methanesulfonamide]",IC50,[1]; [4],10 nM
same,IC50,[2]; [4],2.2 nM
same,IC50,[3]; [4],41 nM
"COc1cc2cc(C(=O)c3cnn(-c4cnc(Oc5c(F)cccc5F)cc4C)c3N)[nH]c2cc1NS(=O)(=O)C1CC1 [Example 4-24-035, N-[2-[5-amino-1-[6-(2,6-difluorophenoxy)-4-methylpyridin-3-yl]pyrazole-4-carbonyl]-5-methoxy-1H-indol-6-yl]cyclopropanesulfonamide]",IC50,[1]; [4],5 nM
same,IC50,[2]; [4],1.2 nM
same,IC50,[3]; [4],47 nM
"Cc1cc2cc(C(=O)c3cnn(-c4cnc(Oc5c(F)cccc5F)cc4C)c3N)[nH]c2cc1NS(=O)(=O)CC(=O)N1CCOCC1 [Example 4-10-010, N-[2-[5-amino-1-[6-(2,6-difluorophenoxy)-4-methylpyridin-3-yl]pyrazole-4-carbonyl]-5-methyl-1H-indol-6-yl]-2-morpholin-4-yl-2-oxoethanesulfonamide]",IC50,[1]; [4],7.1 nM
same,IC50,[2]; [4],1.3 nM
same,IC50,[3]; [4],26 nM
"COc1ccc(Cl)c(S(=O)(=O)Nc2cc3[nH]c(C(=O)c4cnn(-c5ccc(Oc6ccccc6F)cc5C)c4N)cc3cc2OCC(F)F)c1 [Example 5-1-331, N-[2-[5-amino-1-[4-(2-fluorophenoxy)-2-methylphenyl]pyrazole-4-carbonyl]-5-(2,2-difluoroethoxy)-1H-indol-6-yl]-2-chloro-5-methoxybenzenesulfonamide]",IC50,[1],180 nM
same,IC50,[2],7 nM
same,IC50,[3],330 nM
"Cc1cc2cc(C(=O)c3cnn(-c4cnc(Oc5ccccc5F)cc4C)c3N)[nH]c2cc1NS(=O)(=O)C1CCOCC1 [Example 5-1-333, N-[2-[5-amino-1-[6-(2-fluorophenoxy)-4-methylpyridin-3-yl]pyrazole-4-carbonyl]-5-methyl-1H-indol-6-yl]oxane-4-sulfonamide]",IC50,[1],19 nM
same,IC50,[2],2 nM
same,IC50,[3],140 nM
"Cc1cc(Oc2ccccc2F)ccc1-n1ncc(C(=O)c2cc3cc(N4CCOCC4)c(N4CCN(S(C)(=O)=O)CC4)cc3[nH]2)c1N [Example 5-1-093, [5-amino-1-[4-(2-fluorophenoxy)-2-methylphenyl]pyrazol-4-yl]-[6-(4-methylsulfonylpiperazin-1-yl)-5-morpholin-4-yl-1H-indol-2-yl]methanone]",IC50,[1],3.7 nM
same,IC50,[2],1.8 nM
same,IC50,[3],11 nM
"Cc1cc(Oc2c(F)cccc2F)ncc1-n1ncc(C(=O)c2cc3cc(OC4CCN(C5CS(=O)(=O)C5)CC4)c(-c4ccccc4Cl)cc3[nH]2)c1N [Example 5-1-290, [5-amino-1-[6-(2,6-difluorophenoxy)-4-methylpyridin-3-yl]pyrazol-4-yl]-[6-(2-chlorophenyl)-5-[1-(1,1-dioxothietan-3-yl)piperidin-4-yl]oxy-1H-indol-2-yl]methanone]",IC50,[1],30 nM
same,IC50,[2],2.1 nM
same,IC50,[3],46 nM
"Cc1cc(Oc2c(F)cccc2F)ncc1-n1ncc(C(=O)c2cc3cc(OC4CCN(C5CCC5)CC4)c(Br)cc3[nH]2)c1N [Example 5-1-221, [5-amino-1-[6-(2,6-difluorophenoxy)-4-methylpyridin-3-yl]pyrazol-4-yl]-[6-bromo-5-(1-cyclobutylpiperidin-4-yl)oxy-1H-indol-2-yl] methanone]",IC50,[1],7.5 nM
same,IC50,[2],0.66 nM
same,IC50,[3],6.4 nM
"CS(=O)(=O)Nc1cc2[nH]c(C(=O)c3cnn(-c4ccc(Oc5ccccc5F)cc4Cl)c3N)cc2cc1F [Example 5-1-018, N-[2-[5-amino-1-[2-chloro-4-(2-fluorophenoxy)phenyl]pyrazole-4-carbonyl]-5-fluoro-1H-indol-6-yl]methanesulfonamide]",IC50,[1],33 nM
same,IC50,[2],2.2 nM
same,IC50,[3],110 nM
"CC(=O)N1CCC(c2cc3[nH]c(C(=O)c4cnn(-c5cnc(Oc6ccccc6F)cc5C)c4N)cc3cc2C)CC1 [Example 5-1-133, 1-[4-[2-[5-amino-1-[6-(2-fluorophenoxy)-4-methylpyridin-3-yl]pyrazole-4-carbonyl]-5-methyl-1H-indol-6-yl]piperidin-1-yl]ethanone]",IC50,[1],2.5 nM
same,IC50,[2],0.63 nM
same,IC50,[3],6.1 nM
"Cc1cc(Oc2c(F)cccc2F)ncc1-n1ncc(C(=O)c2cc3cc(OC4CCN(C(C)C)CC4)c(N4CCOC4=O)cc3[nH]2)c1N [Example 5-1-186, 3-[2-[5-amino-1-[6-(2,6-difluorophenoxy)-4-methylpyridin-3-yl]pyrazole-4-carbonyl]-5-(1-propan-2-ylpiperidin-4-yl)oxy-1H-indol-6-yl]-1,3-oxazolidin-2-one]",IC50,[1],1.3 nM
same,IC50,[2],0.28 nM
same,IC50,[3],1.9 nM
"Cc1cc(Oc2c(F)cccc2F)ncc1-n1ncc(C(=O)c2cc3cc(OCC(F)F)c(C4CCN(C(=O)OC(C)(C)C)CC4)cc3[nH]2)c1N [Example 5-1-069, tert-Butyl 4-[2-[5-amino-1-[6-(2,6-difluorophenoxy)-4-methylpyridin-3-yl]pyrazole-4-carbonyl]-5-(2,2-difluoroethoxy)-1H-indol-6-yl]piperidine-1-carboxylate]",IC50,[1],20 nM
same,IC50,[2],18 nM
same,IC50,[3],33 nM
"Cc1cc2cc(C(=O)c3cnn(-c4cnc(Oc5c(F)cccc5F)cc4C)c3N)[nH]c2cc1NS(=O)(=O)c1cncc(Cl)c1 [Example 5-1-541, N-[2-[5-amino-1-[6-(2,6-difluorophenoxy)-4-methylpyridin-3-yl]pyrazole-4-carbonyl]-5-methyl-1H-indol-6-yl]-5-chloropyridine-3-sulfonamide]",IC50,[1]; [4],280 nM
same,IC50,[2]; [4],12 nM
same,IC50,[3]; [4],660 nM
"Cc1cc2cc(C(=O)c3cnn(-c4c(C)cc(Oc5ccccc5F)cc4F)c3N)[nH]c2cc1N1CCOCC1 [Example 5-1-084, [5-amino-1-[2-fluoro-4-(2-fluorophenoxy)-6-methylphenyl]pyrazol-4-yl]-(5-methyl-6-morpholin-4-yl-1H-indol-2-yl)methanone]",IC50,[1],4.5 nM
same,IC50,[2],4.1 nM
same,IC50,[3],34 nM
"Cc1cc(Oc2cc(Cl)ccc2Cl)ncc1-n1ncc(C(=O)c2cc3cc(F)c(NS(C)(=O)=O)cc3[nH]2)c1N [Example 5-1-055, N-[2-[5-amino-1-[6-(2,5-dichlorophenoxy)-4-methylpyridin-3-yl]pyrazole-4-carbonyl]-5-fluoro-1H-indol-6-yl]methanesulfonamide]",IC50,[1],94 nM
same,IC50,[2],16 nM
same,IC50,[3],190 nM
"Cc1cc(Oc2cccc(F)c2F)ccc1-n1ncc(C(=O)c2cc3cc(F)c(NS(C)(=O)=O)cc3[nH]2)c1N [Example 4-2-029, N-[2-[5-amino-1-[4-(2,3-difluorophenoxy)-2-methylphenyl]pyrazole-4-carbonyl]-5-fluoro-1H-indol-6-yl]methanesulfonamide]",IC50,[1]; [4],5.5 nM
same,IC50,[2]; [4],0.64 nM
same,IC50,[3]; [4],28 nM
"Cc1cc(-n2ncc(C(=O)c3cc4cc(C)c(N5C(=O)NC6(COC6)C5=O)cc4[nH]3)c2N)ccc1Oc1ccccc1F [Example 5-1-475, 7-[2-[5-amino-1-[4-(2-fluorophenoxy)-3-methylphenyl]pyrazole-4-carbonyl]-5-methyl-1H-indol-6-yl]-2-oxa-5,7-diazaspiro[3.4] octane-6,8-dione]",IC50,[1]; [4],71 nM
same,IC50,[2]; [4],8.2 nM
same,IC50,[3]; [4],1400 nM
"COc1cc2cc(C(=O)c3cnn(-c4ccc(Oc5ccccc5F)cc4C)c3N)[nH]c2cc1NS(=O)(=O)CC(=O)NC(C)C [Example 4-10-011, 2-[[2-[5-amino-1-[4-(2-fluorophenoxy)-2-methylphenyl]pyrazole-4-carbonyl]-5-methoxy-1H-indol-6-yl]sulfamoyl]-N-propan-2-ylacetamide]",IC50,[1]; [4],3.8 nM
same,IC50,[2]; [4],0.64 nM
same,IC50,[3]; [4],25 nM
"COc1cc2cc(C(=O)c3cnn(-c4cnc(Oc5ccccc5F)cc4C)c3N)[nH]c2cc1NS(C)(=O)=O [Example 4-1-008, N-[2-[5-amino-1-[6-(2-fluorophenoxy)-4-methylpyridin-3-yl]pyrazole-4-carbonyl]-5-methoxy-1H-indol-6-yl]methanesulfonamide]",IC50,[1]; [4],4 nM
same,IC50,[2]; [4],0.69 nM
same,IC50,[3]; [4],52 nM
